System: HIV
Test: Assay for inhibition of HIV replication (spread assay; acute HIV infection of T-lymphoid cells)
Assay type: cell-based
Conditions: Human immunodeficiency virus 1, tested up to 1 micromolar
Procedure: Assay for Inhibition of HIV Replication
Assays for the inhibition of acute HIV infection of T-lymphoid cells were conducted in accordance with Vacca, J. P. et al., Proc. Natl. Acad. Sci. USA 1994, 91: 4096. […] The compounds of Examples 6, 8, 9, 14, 15, 21-23 and 29-35 were also tested in the spread assay up to 1 micromolar, but specific IC95 values were not obtained; i.e., the IC95 values for these compounds are greater than 1 micromolar.

Compared with O=C(NCc1ccc(F)cc1)c1nc2ccccn2c(=O)c1O [Example 1, N-(4-Fluorobenzyl)-3-hydroxy-4-oxo-4H-pyrido[1,2-a]pyrimidine-2-carboxamide], Cc1cccn2c(=O)c(O)c(C(=O)NCc3ccc(F)cc3)nc12 [Example 29, N-(4-fluorobenzyl)-3-hydroxy-9-methyl-4-oxo-4H-pyrido[1,2-a]pyrimidine-2-carboxamide] is higher in IC95: less than 1000 nM for the first, greater than 1000 nM for the second.

Going from CN(C(=O)CS(C)(=O)=O)c1cccn2c(=O)c(O)c(C(=O)NCc3ccc(F)cc3)nc12 [Example 2, N-(4-fluorobenzyl)-3-hydroxy-9-{methyl[(methylsulfonyl)acetyl]amino}-4-oxo-4H-pyrido[1,2-a]pyrimidine-2-carboxamide] to CC(=O)N(C)c1cccn2c(=O)c(O)c(C(=O)NCc3ccc(F)cc3)nc12 [Example 6, 9-[acetyl(methyl)amino]-N-(4-fluorobenzyl)-3-hydroxy-4-oxo-4H-pyrido[1,2-a]pyrimidine-2-carboxamide], the IC95 rises from less than 1000 nM to greater than 1000 nM.

CCN(CC)C(=O)C(=O)N(CC)c1cccn2c(=O)c(O)c(C(=O)NCc3ccc(F)cc3)nc12 [Example 3, N-(4-fluorobenzyl)-3-hydroxy-9-[(N,N,N′-triethyl)-ethanediamide]-4-oxo-4H-pyrido[1,2-a]pyrimidine-2-carboxamide] and CCN(C(=O)C(=O)N(C)C)c1cccn2c(=O)c(O)c(C(=O)NCc3ccc(F)cc3)nc12 [Example 12, N-(2-{[(4-fluorobenzyl)amino]carbonyl}-3-hydroxy-4-oxo-4H-pyrido[1,2-a]pyrimidin-9-yl)-N-ethyl-N′,N′-dimethylethanediamide] cannot be ordered by IC95: less than 1000 nM for the first, less than 1000 nM for the second.

O=C(NCc1ccc(F)cc1)c1nc2c(OCc3ccccc3)cccn2c(=O)c1O [Example 4, N-(4-fluorobenzyl)-3-hydroxy-9-(benzyloxy)-4-oxo-4H-pyrido[1,2-a]pyrimidine-2-carboxamide] and O=C(Nc1cccn2c(=O)c(O)c(C(=O)NCc3ccc(F)cc3)nc12)OCc1ccccc1 [Example 13, benzyl (2-{[(4-fluorobenzyl)amino]carbonyl}-3-hydroxy-4-oxo-4H-pyrido[1,2-a]pyrimidin-9-yl)carbamate] cannot be ordered by IC95: less than 1000 nM for the first, less than 1000 nM for the second.

Going from O=C(NCc1ccc(F)cc1)c1nc2ccc(-c3ccccc3N3CCOCC3)cn2c(=O)c1O [Example 5] to O=C(NCc1ccc(F)cc1)c1nc2c(CN3CCOCC3)cccn2c(=O)c1O [Example 32, N-(4-fluorobenzyl)-3-hydroxy-9-(morpholin-4-ylmethyl)-4-oxo-4H-pyrido[1,2-a]pyrimidine-2-carboxamide], the IC95 rises from less than 1000 nM to greater than 1000 nM.

Compared with CN(C(=O)c1ccccc1)c1cccn2c(=O)c(O)c(C(=O)NCc3ccc(F)cc3)nc12 [Example 7, 9-[benzoyl(methyl)amino]-N-(4-fluorobenzyl)-3-hydroxy-4-oxo-4H-pyrido[1,2-a]pyrimidine-2-carboxamide], O=C(Nc1cccn2c(=O)c(O)c(C(=O)NCc3ccc(F)cc3)nc12)c1ccccc1 [Example 14, 9-[benzoylamino]-N-(4-fluorobenzyl)-3-hydroxy-4-oxo-4H-pyrido[1,2-a]pyrimidine-2-carboxamide] is higher in IC95: less than 1000 nM for the first, greater than 1000 nM for the second.

First: CNc1cccn2c(=O)c(O)c(C(=O)NCc3ccc(F)cc3)nc12 [Example 8, 9-[methylamino]-N-(4-fluorobenzyl)-3-hydroxy-4-oxo-4H-pyrido[1,2-a]pyrimidine-2-carboxamide]
Second: CCNc1cccn2c(=O)c(O)c(C(=O)NCc3ccc(F)cc3)nc12 [Example 10, 9-[ethylamino]-N-(4-fluorobenzyl)-3-hydroxy-4-oxo-4H-pyrido[1,2-a]pyrimidine-2-carboxamide]
The IC95 of the first is higher: greater than 1000 nM for the first, less than 1000 nM for the second.

CN(C)c1cccn2c(=O)c(O)c(C(=O)NCc3ccc(F)cc3)nc12 [Example 9, 9-[dimethylamino]-N-(4-fluorobenzyl)-3-hydroxy-4-oxo-4H-pyrido[1,2-a]pyrimidine-2-carboxamide] and CN(C)Cc1cccn2c(=O)c(O)c(C(=O)NCc3ccc(F)cc3)nc12 [Example 30, 9-[(dimethylamino)methyl]-N-(4-fluorobenzyl)-3-hydroxy-4-oxo-4H-pyrido[1,2-a]pyrimidine-2-carboxamide] cannot be ordered by IC95: greater than 1000 nM for the first, greater than 1000 nM for the second.

CN(C)C(=O)C(=O)N(C)c1cccn2c(=O)c(O)c(C(=O)NCc3ccc(F)cc3)nc12 [Example 11, N-(2-{[(4-fluorobenzyl)amino]carbonyl}-3-hydroxy-4-oxo-4H-pyrido[1,2-a]pyrimidin-9-yl)-N,N′,N′-trimethylethanediamide] and CCCN(C(=O)C(=O)N(C)C)c1cccn2c(=O)c(O)c(C(=O)NCc3ccc(F)cc3)nc12 [Example 17, N-(2-{[(4-fluorobenzyl)amino]carbonyl}-3-hydroxy-4-oxo-4H-pyrido[1,2-a]pyrimidin-9-yl)-N-propyl-N′,N′-dimethylethanediamide] cannot be ordered by IC95: less than 1000 nM for the first, less than 1000 nM for the second.

First: CCN(C(=O)c1ccncc1)c1cccn2c(=O)c(O)c(C(=O)NCc3ccc(F)cc3)nc12 [Example 15, 9-[ethyl(isonicotinoyl)amino]-N-(4-fluorobenzyl)-3-hydroxy-4-oxo-4H-pyrido[1,2-a]pyrimidine-2-carboxamide]
Second: CCN(C(=O)c1ccccn1)c1cccn2c(=O)c(O)c(C(=O)NCc3ccc(F)cc3)nc12 [Example 16, 9-[ethyl(pyridin-2-ylcarbonyl)amino]-N-(4-fluorobenzyl)-3-hydroxy-4-oxo-4H-pyrido[1,2-a]pyrimidine-2-carboxamide]
The IC95 of the first is higher: greater than 1000 nM for the first, less than 1000 nM for the second.

CC(C)CN(C(=O)C(=O)N(C)C)c1cccn2c(=O)c(O)c(C(=O)NCc3ccc(F)cc3)nc12 [Example 18, N-(2-{[(4-fluorobenzyl)amino]carbonyl}-3-hydroxy-4-oxo-4H-pyrido[1,2-a]pyrimidin-9-yl)-N-isobutyl-N′,N′-dimethylethanediamide] and CCN(C(=O)CN(C)C)c1cccn2c(=O)c(O)c(C(=O)NCc3ccc(F)cc3)nc12 [Example 20, 9-[(N,N-dimethylglycyl)(ethyl)amino]-N-(4-fluorobenzyl)-3-hydroxy-4-oxo-4H-pyrido[1,2-a]pyrimidine-2-carboxamide] cannot be ordered by IC95: less than 1000 nM for the first, less than 1000 nM for the second.

CCN(C(=O)C(=O)N1CCOCC1)c1cccn2c(=O)c(O)c(C(=O)NCc3ccc(F)cc3)nc12 [Example 19, N-(4-fluorobenzyl)-3-hydroxy-9-{ethyl[morpholin-4-yl(oxo)acetyl]amino}-4-oxo-4H-pyrido[1,2-a]pyrimidine-2-carboxamide] and CCN(C(=O)C(=O)N1CCCC1)c1cccn2c(=O)c(O)c(C(=O)NCc3ccc(F)cc3)nc12 [Example 27, 9-{ethyl[oxo(pyrrolidin-1-yl)acetyl]amino}-N-(4-fluorobenzyl)-3-hydroxy-4-oxo-4H-pyrido[1,2-a]pyrimidine-2-carboxamide] cannot be ordered by IC95: less than 1000 nM for the first, less than 1000 nM for the second.

CCN(CC)CC(=O)N(CC)c1cccn2c(=O)c(O)c(C(=O)NCc3ccc(F)cc3)nc12 [Example 21, 9-[(N,N-diethylglycyl)(ethyl)amino]-N-(4-fluorobenzyl)-3-hydroxy-4-oxo-4H-pyrido[1,2-a]pyrimidine-2-carboxamide] and CCN(C(=O)CN1CCN(C)CC1)c1cccn2c(=O)c(O)c(C(=O)NCc3ccc(F)cc3)nc12 [Example 23, 9-{ethyl[(4-methylpiperazin-1-yl)acetyl]amino}-N-(4-fluorobenzyl)-3-hydroxy-4-oxo-4H-pyrido[1,2-a]pyrimidine-2-carboxamide] cannot be ordered by IC95: greater than 1000 nM for the first, greater than 1000 nM for the second.

First: CCN(C(=O)CN1CCOCC1)c1cccn2c(=O)c(O)c(C(=O)NCc3ccc(F)cc3)nc12 [Example 22, 9-[ethyl(morpholin-4-ylacetyl)amino]-N-(4-fluorobenzyl)-3-hydroxy-4-oxo-4H-pyrido[1,2-a]pyrimidine-2-carboxamide]
Second: CCN(C(=O)C(=O)N1CCN(C)CC1)c1cccn2c(=O)c(O)c(C(=O)NCc3ccc(F)cc3)nc12 [Example 28, 4-[[ethyl(2-{[(4-fluorobenzyl)amino]carbonyl}-3-hydroxy-4-oxo-4H-pyrido[1,2-a]pyrimidin-9-yl)amino](oxo)acetyl]-1-methylpiperazine]
The IC95 of the first is higher: greater than 1000 nM for the first, less than 1000 nM for the second.

CCN(C(=O)c1cscn1)c1cccn2c(=O)c(O)c(C(=O)NCc3ccc(F)cc3)nc12 [Example 24, 9-[ethyl(1,3-thiazol-4-ylcarbonyl)amino]-N-(4-fluorobenzyl)-3-hydroxy-4-oxo-4H-pyrido[1,2-a]pyrimidine-2-carboxamide] and CCN(C(=O)c1ccno1)c1cccn2c(=O)c(O)c(C(=O)NCc3ccc(F)cc3)nc12 [Example 25, 9-[ethyl(isoxazol-5-ylcarbonyl)amino]-N-(4-fluorobenzyl)-3-hydroxy-4-oxo-4H-pyrido[1,2-a]pyrimidine-2-carboxamide] cannot be ordered by IC95: less than 1000 nM for the first, less than 1000 nM for the second.

Going from CCN(C(=O)c1nnc(C)o1)c1cccn2c(=O)c(O)c(C(=O)NCc3ccc(F)cc3)nc12 [Example 26, 9-{ethyl[(5-methyl-1,3,4-oxadiazol-2-yl)carbonyl]amino}-N-(4-fluorobenzyl)-3-hydroxy-4-oxo-4H-pyrido[1,2-a]pyrimidine-2-carboxamide] to CON(C)Cc1cccn2c(=O)c(O)c(C(=O)NCc3ccc(F)cc3)nc12 [Example 31, N-(4-fluorobenzyl)-3-hydroxy-9-{[methoxy(methyl)amino]methyl}-4-oxo-4H-pyrido[1,2-a]pyrimidine-2-carboxamide], the IC95 rises from less than 1000 nM to greater than 1000 nM.

CC(=O)N1CCN(Cc2cccn3c(=O)c(O)c(C(=O)NCc4ccc(F)cc4)nc23)CC1 [Example 33, 9-[(4-acetylpiperazin-1-yl)methyl]-N-(4-fluorobenzyl)-3-hydroxy-4-oxo-4H-pyrido[1,2-a]pyrimidine-2-carboxamide] and O=C(NCc1cccn2c(=O)c(O)c(C(=O)NCc3ccc(F)cc3)nc12)c1ccccc1 [Example 34, 9-[(benzoylamino)methyl]-N-(4-fluorobenzyl)-3-hydroxy-4-oxo-4H-pyrido[1,2-a]pyrimidine-2-carboxamide] cannot be ordered by IC95: greater than 1000 nM for the first, greater than 1000 nM for the second.
